Earlier results on one compound are cited in patent US9375001B1, “Granular fly bait” (Wellmark International, priority 2012, dated 2016).

Molecules are shown by their SMILES. Where two headings read alike, the source gives them in different places.

In the case of `OC[C@H]1O[C@@](CO)(O[C@H]2O[C@H](CO)[C@@H](O)[C@H](O)[C@H]2O)[C@@H](O)[C@@H]1O` [Sucrose], the “Solubility of Sucrose in Water, Sucrose/water” value was 2.59 wt/wt (50 ° C.); 2.73 wt/wt (55 ° C.); 2.89 wt/wt (60 ° C.); 3.06 wt/wt (65 ° C.); 3.25 wt/wt (70 ° C.); 3.46 wt/wt (75 ° C.). In addition, the “Solubility of Sucrose in Water, Sucrose/water” value reads like this: (80 ° C.) 3.69 wt/wt; (85 ° C.) 3.94 wt/wt; (90 ° C.) 4.20 wt/wt.
